# Experiments:
# Format in all cases: in vivo
# Kochia (Kochia scoparia) [1] = assay: Test A preemergence
# Method in brief: (§1)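 Visual injury, scored on a 0–100 scale relative to untreated controls, was recorded about 10 d after application. Treatments were a preemergence soil spray over planted seeds or a postemergence spray on plants at the one- to two-leaf stage, 2 to 10 cm tall, all in loam soil–sand blend in the greenhouse.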
# [2] = system: ragweed (common ragweed, Ambrosia elatior); assay: Test A preemergence
# Method in brief: as §1
# [3] = system: ryegrass, Italian (Italian ryegrass, Lolium multiflorum); assay: Test A preemergence
# Method in brief: as §1
# [4] = system: pigweed (Amaranthus retroflexus); assay: Test A preemergence
# [5] = system: barnyardgrass (Echinochloa crus-galli); assay: Test A preemergence
# Method in brief: as §1
# [6] = system: giant foxtail (Setaria faberii); assay: Test A preemergence
# Method in brief: as §1
# [7] = system: ducksalad (Heteranthera limosa); assay: Test B flooded paddy test; conditions: Flood, 0 to 100 scale where 0 is no effect and 100 is complete control, 13 to 15 d
# Method in brief: (§2)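 Percent control, visually estimated after 13–15 d in the greenhouse on a 0–100 basis, compares treated pots with untreated ones; compound was put into paddy water 3 cm above the soil when plants had two leaves.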
# rice (Oryra sativa) = assay: Test B flooded paddy test; conditions: Flood, 0 to 100 scale where 0 is no effect and 100 is complete control, 13 to 15 d
# Method in brief: as §2
# [8] = system: barnyardgrass (Echinochloa crus-galli); assay: Test B flooded paddy test; conditions: Flood, 0 to 100 scale where 0 is no effect and 100 is complete control, 13 to 15 d
# Method in brief: as §2
# [9] = system: sedge, umbrella (small-flower umbrella sedge, Cyperus difformis); assay: Test B flooded paddy test; conditions: Flood, 0 to 100 scale where 0 is no effect and 100 is complete control, 13 to 15 d
# Method in brief: as §2
# Kochia (Kochia scoparia) [10] = assay: Test A postemergence; conditions: postemergence
# Method in brief: as §1
# [11] = system: ragweed (common ragweed, Ambrosia elatior); assay: Test A postemergence; conditions: postemergence
# Method in brief: as §1
# [12] = system: blackgrass (Alopecurus myosuroides); assay: Test A postemergence; conditions: postemergence
# Method in brief: as §1
# [13] = system: Galium (catchweed bedstraw, Galium aparine); assay: Test A postemergence; conditions: postemergence
# Method in brief: as §1
# corn (Zea mays) = assay: Test A postemergence; conditions: postemergence
# Method in brief: as §1
# [14] = system: ryegrass, Italian (Italian ryegrass, Lolium multiflorum); assay: Test A postemergence; conditions: postemergence
# Method in brief: as §1
# [15] = system: pigweed (Amaranthus retroflexus); assay: Test A postemergence; conditions: postemergence
# Method in brief: as §1
# [16] = system: barnyardgrass (Echinochloa crus-galli); assay: Test A postemergence; conditions: postemergence
# Method in brief: as §1
# [17] = system: giant foxtail (Setaria faberii); assay: Test A postemergence; conditions: postemergence
# Method in brief: as §1
# [18] = system: wheat (Triticum aestivum); assay: Test A postemergence; conditions: postemergence
# Method in brief: as §1
# [19] = 125 g ai/ha, preemergence, 0 to 100 scale (0 no effect, 100 complete control)
# [20] = Preemergence, 500 g ai/ha, visual injury approx. 10 d
# [21] = 125 g ai/ha, visual injury rating on 0 to 100 scale (0 no effect, 100 complete control), approx. 10 d
# [22] = 500 g ai/ha, 0 to 100 scale, 0 no effect, 100 complete control
# [23] = 125 g ai/ha, Preemergence, visual injury after approximately 10 d, 0 to 100 scale where 0 is no effect and 100 is complete control
# [24] = 500 g ai/ha, preemergence, 0 to 100 scale, 0 = no effect, 100 = complete control
# [25] = 125 g ai/ha, visual rating after approx. 10 d, 0 to 100 scale (0 no effect, 100 complete control)
# [26] = 500 g ai/ha, visual injury, 0 to 100 scale (0 no effect, 100 complete control), approx. 10 d
structure (smiles),measurement,setting,value
O=C1NCC(c2cccc(OC(F)F)c2)C1C(=O)Nc1cccc(OC(F)F)c1 (stereo not drawn) [Compound 422],"Plant response rating, Kochia",Kochia (Kochia scoparia) [1]; [19],0
same,"Kochia plant response rating (0 to 100 scale, 0 is no effect, 100 is complete control)",Kochia (Kochia scoparia) [1]; [20],0
same,"Plant response rating, Ragweed",[2]; [19],0
same,"Ragweed plant response rating (0 to 100 scale, 0 is no effect, 100 is complete control)",[2]; [20],0
same,"Plant response rating, Ryegrass, Italian",[3]; [19],0
same,"Ryegrass, Italian plant response rating (0 to 100 scale, 0 is no effect, 100 is complete control)",[3]; [20],0
same,"Plant response rating, Pigweed",[4]; [19],20
same,"Pigweed plant response rating (0 to 100 scale, 0 is no effect, 100 is complete control)",[4]; [20],30
same,"Plant response rating, Barnyardgrass",[5]; [19],40
same,"Barnyardgrass plant response rating (0 to 100 scale, 0 is no effect, 100 is complete control)",[5]; [20],70
same,"Plant response rating, Foxtail, Giant",[6]; [19],60
same,"Foxtail, Giant plant response rating (0 to 100 scale, 0 is no effect, 100 is complete control)",[6]; [20],70
same,"Plant response rating, Ducksalad",[7]; 500 g ai/ha,50
same,"Plant response rating, Rice",rice (Oryra sativa); 500 g ai/ha,0
same,"Plant response rating, Barnyardgrass",[8]; 500 g ai/ha,0
same,"Plant response rating, Sedge, Umbrella",[9]; 500 g ai/ha,0
same,Kochia plant response rating,Kochia (Kochia scoparia) [10]; [21],50
same,"Plant response rating, Kochia",Kochia (Kochia scoparia) [10]; [22],60
same,Ragweed plant response rating,[11]; [21],0
same,"Plant response rating, Ragweed",[11]; [22],0
same,Blackgrass plant response rating,[12]; [21],30
same,"Plant response rating, Blackgrass",[12]; [22],50
same,Galium plant response rating,[13]; [21],30
same,"Plant response rating, Galium",[13]; [22],70
same,Corn plant response rating,corn (Zea mays); [21],0
same,"Plant response rating, Corn",corn (Zea mays); [22],0
same,"Ryegrass, Italian plant response rating",[14]; [21],0
same,"Plant response rating, Ryegrass, Italian",[14]; [22],0
same,Pigweed plant response rating,[15]; [21],40
same,"Plant response rating, Pigweed",[15]; [22],60
same,Barnyardgrass plant response rating,[16]; [21],50
same,"Plant response rating, Barnyardgrass",[16]; [22],60
same,"Foxtail, Giant plant response rating",[17]; [21],50
same,"Plant response rating, Foxtail, Giant",[17]; [22],60
same,Wheat plant response rating,[18]; [21],0
same,"Plant response rating, Wheat",[18]; [22],0
CCc1cc(C2CNC(=O)C2C(=O)Nc2cccc(F)c2F)cs1 (racemic) [Compound 658],"Plant response rating, Kochia",Kochia (Kochia scoparia) [1]; [23],0
same,"Plant response rating, Kochia",Kochia (Kochia scoparia) [1]; [24],30
same,"Plant response rating, Ragweed",[2]; [23],50
same,"Plant response rating, Ragweed",[2]; [24],70
same,"Plant response rating, Ryegrass, Italian",[3]; [23],0
same,"Plant response rating, Ryegrass, Italian",[3]; [24],70
same,"Plant response rating, Pigweed",[4]; [23],0
same,"Plant response rating, Pigweed",[4]; [24],50
same,"Plant response rating, Barnyardgrass",[5]; [23],90
same,"Plant response rating, Barnyardgrass",[5]; [24],90
same,"Plant response rating, Foxtail, Giant",[6]; [23],90
same,"Plant response rating, Foxtail, Giant",[6]; [24],90
same,"Plant response rating, Ducksalad",[7]; 250 g ai/ha,100
same,"Plant response rating, Rice",rice (Oryra sativa); 250 g ai/ha,0
same,"Plant response rating, Barnyardgrass",[8]; 250 g ai/ha,50
same,"Plant response rating, Sedge, Umbrella",[9]; 250 g ai/ha,0
same,"Plant response rating, Kochia",Kochia (Kochia scoparia) [10]; [25],0
same,"Plant response rating, Kochia",Kochia (Kochia scoparia) [10]; [26],30
same,"Plant response rating, Ragweed",[11]; [25],0
same,"Plant response rating, Ragweed",[11]; [26],40
same,"Plant response rating, Blackgrass",[12]; [25],40
same,"Plant response rating, Blackgrass",[12]; [26],70
same,"Plant response rating, Galium",[13]; [25],60
same,"Plant response rating, Galium",[13]; [26],60
same,"Plant response rating, Corn",corn (Zea mays); [25],0
same,"Plant response rating, Corn",corn (Zea mays); [26],30
same,"Plant response rating, Ryegrass, Italian",[14]; [25],30
same,"Plant response rating, Ryegrass, Italian",[14]; [26],60
same,"Plant response rating, Pigweed",[15]; [25],0
same,"Plant response rating, Pigweed",[15]; [26],0
same,"Plant response rating, Barnyardgrass",[16]; [25],70
same,"Plant response rating, Barnyardgrass",[16]; [26],90
same,"Plant response rating, Foxtail, Giant",[17]; [25],0
same,"Plant response rating, Foxtail, Giant",[17]; [26],60
same,"Plant response rating, Wheat",[18]; [25],0
same,"Plant response rating, Wheat",[18]; [26],30

# Source: US12077503B2, “Substituted cyclic amides and their use as herbicides” (FMC CORPORATION, priority 2015, dated 2024)
